Earlier results, collected in patent US20090042781A1, “Methods for Treating Diabetes” (Novo Nordisk A/S, priority 2004, published 2009).

Experiments:
[1] = injected into dogs
[2] = administered by gastric gavage

Row | Molecule | blood glucose level [1] | insulin release [1] | serum gastrin level [2]
1 | Exendin-4 | lowering of the blood glucose level | stimulate insulin release | –
2 | CC(C)(Oc1ccc(C2CC2(Cl)Cl)cc1)C(=O)O (stereo not drawn) [ciprofibrate] | – | – | increase
